{"source": "ChEMBL document CHEMBL1136907", "about": "“Structural insight into human CK2alpha in complex with the potent inhibitor ellagic acid” (Bioorg Med Chem Lett, 2009)", "key": {"[1]": {"experiment": "Inhibition of rat liver CK2 by Lineweaver-Burke double reciprocal plot analysis"}, "[2]": {"experiment": "Inhibition of rat liver CK2 catalytic activity"}, "[3]": {"experiment": "Inhibition of PKA"}, "[4]": {"experiment": "Inhibition of PKC"}}, "data": [{"smiles": "O=c1oc2c(O)c(O)cc3c(=O)oc4c(O)c(O)cc1c4c23", "note": "[ELLAGIC ACID]", "values": [{"measurement": "Ki", "setting": "[1]", "result": 20, "unit": "nM"}, {"measurement": "IC50", "setting": "[2]", "result": 40, "unit": "nM"}, {"measurement": "IC50", "setting": "[3]", "result": 2000, "unit": "nM"}, {"measurement": "IC50", "setting": "[4]", "result": 8000, "unit": "nM"}]}]}
